Measurements as given in patent publication US11453647B2, “Benzimidazole derivatives as adenosine receptor antagonists” (Merck Patent GmbH, priority 2017, dated 2022).

What was measured:
Assay type in all cases: cell-based
[1] = target: T1, human A3 receptor (Homo sapiens, UniProt P0DMS8); assay: functional cAMP (HTRF) assay, recombinant CHO cells expressing human A3 receptor, forskolin, agonist IB-MECA
T1 construct: expressed in transfected cells; host or cells: CHO
T1 sequence (P0DMS8 1-318): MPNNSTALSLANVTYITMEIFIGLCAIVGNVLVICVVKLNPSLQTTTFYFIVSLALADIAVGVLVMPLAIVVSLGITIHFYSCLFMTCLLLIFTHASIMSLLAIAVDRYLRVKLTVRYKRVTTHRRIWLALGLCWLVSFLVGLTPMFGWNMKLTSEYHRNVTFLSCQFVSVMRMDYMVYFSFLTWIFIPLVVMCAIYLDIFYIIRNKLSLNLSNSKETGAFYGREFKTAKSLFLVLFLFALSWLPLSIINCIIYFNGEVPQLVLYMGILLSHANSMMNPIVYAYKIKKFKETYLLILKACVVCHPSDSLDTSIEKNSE
Method: The functional activities of human A2A, A2B, A1 and A3 receptors were determined by quantification of cAMP, being the second messenger for adenosine receptors.
For human A1 and A3 receptors, recombinant CHO cells, expressing either A1 or A3-receptor, were used. As both receptors couple to Gi proteins, the assay protocol was adapted:
Cells were seeded into 384-well plates, forskolin, test compounds and agonists (CPA for A1- and IB-MECA for A3-receptor) were added. After 30 min incubation, HTRF reagents (cAMP dynamic 2, Cis Bio) were added and the cellular cAMP levels were determined using the ENVISION (Perkin Elmer) plate reader. Obtained raw data were normalized against the inhibitor control and the neural control (DMSO) and the normalized data were fitted using GeneData software.

[2] = target: T2, human A2A receptor (Homo sapiens, UniProt P29274); assay: functional cAMP (HTRF) assay, recombinant HEK293 cells expressing human A2A receptor, agonist NECA
T2 construct: expressed in transfected cells; host or cells: HEK293
T2 sequence (P29274 whole entry): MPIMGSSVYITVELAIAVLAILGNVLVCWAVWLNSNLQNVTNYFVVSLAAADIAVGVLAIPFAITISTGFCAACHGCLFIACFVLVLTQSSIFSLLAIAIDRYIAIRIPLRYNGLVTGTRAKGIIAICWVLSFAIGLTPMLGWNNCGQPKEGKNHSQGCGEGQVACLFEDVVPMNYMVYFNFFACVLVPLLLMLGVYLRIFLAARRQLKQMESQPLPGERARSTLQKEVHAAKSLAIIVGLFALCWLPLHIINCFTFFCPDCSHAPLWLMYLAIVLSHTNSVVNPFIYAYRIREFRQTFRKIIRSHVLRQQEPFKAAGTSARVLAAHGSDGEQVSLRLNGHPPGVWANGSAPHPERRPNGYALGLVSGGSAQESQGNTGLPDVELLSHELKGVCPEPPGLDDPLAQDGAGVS

[3] = target: T3, A2B receptors (Homo sapiens, UniProt P29275); assay: functional cAMP (HTRF) assay, recombinant HEK293 cells expressing human A2B receptor, agonist NECA; parameters: expressed in transfected cells; host or cells: HEK293
T3 sequence (P29275 1-332): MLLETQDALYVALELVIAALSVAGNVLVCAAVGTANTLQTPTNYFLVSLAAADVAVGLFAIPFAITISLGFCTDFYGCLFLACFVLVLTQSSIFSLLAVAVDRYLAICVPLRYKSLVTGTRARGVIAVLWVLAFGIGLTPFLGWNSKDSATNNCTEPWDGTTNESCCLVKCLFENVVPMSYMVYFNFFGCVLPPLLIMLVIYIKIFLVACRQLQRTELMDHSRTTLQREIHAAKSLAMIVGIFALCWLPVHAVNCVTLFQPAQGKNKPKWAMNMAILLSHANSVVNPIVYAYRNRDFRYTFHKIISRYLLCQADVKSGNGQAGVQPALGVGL

COc1cc(F)c(C2CCOCC2)c2nc(NC(=O)c3ccc(C(=O)N(C)C)cc3)[nH]c12 [compound 277, N4-[5-fluoro-7-methoxy-4-(oxan-4-yl)-1H-1,3-benzodiazol-2-yl]-N1,N1-dimethylbenzene-1,4-dicarboxamide]
IC50 [1]: > 1000 nM | IC50 [2]: < 100 nM | IC50 [3]: < 100 nM

COc1ccc(-c2ccccc2)c2nc(NC(=O)c3cnc4cccnn34)[nH]c12 [compound 288, N-(7-methoxy-4-phenyl-1H-1,3-benzodiazol-2-yl)imidazo[1,2-b]pyridazine-3-carboxamide]
IC50 [1]: < 1000 nM | IC50 [2]: < 100 nM | IC50 [3]: < 100 nM

CCCNC(=O)c1ccc(C(=O)Nc2nc3c(OC)ccc(-c4ccccc4)c3[nH]2)cc1 [compound 293, N1-(4-methoxy-7-phenyl-1H-1,3-benzodiazol-2-yl)-N4-propylbenzene-1,4-dicarboxamide]
IC50 [1]: < 1000 nM | IC50 [2]: < 100 nM | IC50 [3]: < 100 nM

COc1ccc(-c2ccccc2)c2[nH]c(NC(=O)c3ccc(C(=O)N4CCN(C)CC4)cc3)nc12 [compound 294, N-(4-methoxy-7-phenyl-1H-1,3-benzodiazol-2-yl)-4-(4-methylpiperazine-1-carbonyl)benzamide]
IC50 [1]: < 1000 nM | IC50 [2]: < 100 nM | IC50 [3]: < 10 nM

COCCN(C)C(=O)c1ccc(C(=O)Nc2nc3c(OC)ccc(-c4ccccc4)c3[nH]2)cc1 [compound 295, N4-(4-methoxy-7-phenyl-1H-1,3-benzodiazol-2-yl)-N1-(2-methoxyethyl)-N1-methylbenzene-1,4-dicarboxamide]
IC50 [1]: < 1000 nM | IC50 [2]: < 100 nM | IC50 [3]: < 100 nM

COc1ccc(-c2ccccc2)c2[nH]c(NC(=O)c3ccc(C(=O)N(C)CCN(C)C)cc3)nc12 [compound 296, N1-[2-(dimethylamino)ethyl]-N4-(4-methoxy-7-phenyl-1H-1,3-benzodiazo1-2-yl)-N1-methylbenzene-1,4-dicarboxamide]
IC50 [1]: < 1000 nM | IC50 [2]: < 100 nM | IC50 [3]: < 10 nM

CCCN(C)C(=O)c1ccc(C(=O)Nc2nc3c(OC)ccc(-c4ccccc4)c3[nH]2)cc1 [compound 297, N4-(4-methoxy-7-phenyl-1H-1,3-benzodiazol-2-yl)-N1-methyl-N1-propylbenzene-1,4-dicarboxamide]
IC50 [1]: < 1000 nM | IC50 [2]: < 100 nM | IC50 [3]: < 100 nM

COc1ccc(-c2ccccc2)c2[nH]c(NC(=O)c3ccc(C(=O)N4CCOCC4)cc3)nc12 [compound 298, N-(4-methoxy-7-phenyl-1H-1,3-benzodiazol-2-yl)-4-(morpholine-4-carbonyl)benzamide]
IC50 [1]: < 1000 nM | IC50 [2]: < 100 nM | IC50 [3]: < 10 nM

COCCn1cc(C(=O)Nc2nc3c(-c4cccc5cc[nH]c45)ccc(OC)c3[nH]2)cn1 [compound 304, N-[4-(1H-indol-7-yl)-7-methoxy-1H-1,3-benzodiazol-2-yl]-1-(2-methoxyethyl)-1H-pyrazole-4-carboxamide]
IC50 [1]: < 1000 nM | IC50 [2]: < 100 nM | IC50 [3]: < 100 nM

COc1ccc(-c2cccc3cc[nH]c23)c2nc(NC(=O)N3CCC(C)(O)CC3)[nH]c12 [compound 305, 4-hydroxy-N-[4-(1H-indol-7-yl)-7-methoxy-1H-1,3-benzodiazol-2-yl]-4-methylpiperidine-1-carboxamide]
IC50 [1]: > 1000 nM | IC50 [2]: < 100 nM | IC50 [3]: < 100 nM

COc1ccc(-c2ccccc2)c2nc(NC(=O)N3CCC4(CCOCC4)C3)[nH]c12 [compound 310, N-(7-methoxy-4-phenyl-1H-1,3-benzodiazol-2-yl)-8-oxa-2-azaspiro[4.5]decane-2-carboxamide]
IC50 [1]: > 1000 nM | IC50 [2]: < 100 nM | IC50 [3]: < 100 nM

COc1ccc(-c2ccccc2)c2nc(NC(=O)c3ccc(CN4CCCC4=O)cc3)[nH]c12 [compound 311, N-(7-methoxy-4-phenyl-1H-1,3-benzodiazol-2-yl)-4-[(2-oxopyrrolidin-1-yl)methyl]benzamide]
IC50 [1]: < 1000 nM | IC50 [2]: < 100 nM | IC50 [3]: < 10 nM
